{
  "source": "patent US20160279110A1",
  "about": "“COMPOSITIONS AND METHODS FOR TREATING CANCER” (UNIVERSITY OF ROCHESTER, priority 2015, published 2016)",
  "key": {"NMD [1]": {"test_system": "NMD", "assay": "NMD reporter mRNA levels (β-Gl Ter, GPx1 Ter) by RT-qPCR in HeLa cells exposed to NMDI-1", "format": "cell-based, human", "method": "Norm encodes a PTCfree version of GPx1 mRNA, whereas Ter encodes mRNA harboring a PTC at codon 46. Cells were re-plated 16 h after transfection at equivalent densities and exposed 24 h later to the indicated concentration of NMDI-1 or, as a positive control for NMD inhibition, cycloheximide (CHX). The levels of β-Gl reporter mRNAs were normalized to the level of the MUP reference mRNA, and the normalized levels of β-Gl Ter mRNA are presented as a percentage of the normalized level of β-Gl Norm mRNA. FIG. 16b is essentially as in a, except GPx1Ter mRNA was analyzed. FIG. 16c is essentially as in b, except MCF7 cells were used. FIG. 16d is essentially as in b, except MCF7 cells were used.\nCells were homogenized, and RNA was purified using RNeasy mini kits (Qiagen). To ensure linearity of both reverse transcription (RT) and qPCR analyses, 17 standard concentrations were constructed using two-fold serial dilutions of total-cell RNA, beginning with 2 μg. Experimental sample input was 200 ng of RNA. RT was conducted using Superscript III (Invitrogen) according to manufacturer's directions and 100 ng of random hexamer (Invitrogen) in a 20 μl reaction volume. Thermal cycling was as follows: 25° C. for 5 min; 42° C. for 60 min; 50° C. for 60 min; and 75° C. for 10 min. Reactions were diluted to a final volume of 80 μl with water and used for qPCR.\nqPCR was conducted using FAST SYBR green master mix (ABI; Foster City, Calif.) according to manufacturer's directions. Cycling was done using a 7500 FAST Real Time machine (ABI) with default conditions, and thermal denaturation curves were generated for each run. Primer sequences were as follows, with mRNA primers sets containing at least one primer spanning an exon-exon junction, and pre-mRNA primer sets containing at least one primer that hybridizes to intronic sequences. Primers for Gl mRNA, GPx1 mRNA and MUP mRNA were described in Kurosaki et al.\nTherefore, a small-molecule inhibitor of NMD, NMDI-1 (FIG. 8c), that interferes with the interaction between UPF1 and SMG5 was utilized. Application of NMDI-1 and the consequential attenuation of NMD may more fully replicate the complete inhibition of NMD mediated by the UPF1 CP generation explored here as well as UPF1 dephosphorylation and the generation of additional UPF1 CPs seen with doxorubicin (FIG. 1c)."}, "NMD [2]": {"test_system": "NMD", "assay": "NMD reporter mRNA levels by RT-qPCR in MCF7 cells exposed to NMDI-1", "format": "cell-based, human"}, "HeLa cells": {"test_system": "HeLa cells", "set-up": "reduction in cell viability relative to doxorubicin alone: dose or concentration left out as unconfirmed", "quoted_text": "Viable cells were quantitated using a Cell Titer Glo assay. […] (d) HeLa cells were plated as in b and exposed to one of three treatments 24 h later—the indicated doxonibicin concentration is provided for 16 h either alone (left histogram) or in the presence of 10 μM NMDI-1 (middle histogram). Alternatively, cells were preincubated with 10 M NMDI-1 for 8 h, washed three times and incubated with the indicated concentrations of doxorubicin for 16 h in the absence of NMDI-1. Viable cells were quantitated as in b. Error bars=S.E.M, *=P<0.05 relative to doxorubicin alone treatment using the Student's t-test. n=4 biological replicates.\nCells were plated in white opaque 96-well plates using multichannel pipettors for accuracy and treated as described in the figure legends. CellTiter-Glo luminescent assays (Promega) were performed according to manufacturer's directions. Data were collected using a SpectraMax M2 plate reader.\nFirst, HeLa cells were challenged with various concentrations of doxorubicin alone. Second, cells were continuously co-incubated for 16 h with doxorubicin and NMDI-1. Third, a transient pulse of NMDI-1 was applied for 8 h, cells were washed to remove NMDI-1, and doxorubicin was then applied."}, "[3]": {"details": "NMDI-1 at a concentration of 10"}},
  "note": "Where two headings read alike, the source gives them in different places.",
  "data": [
    {"smiles": "Cc1c2ccnc(Cl)c2c(C)c2c1[nH]c1ncccc12", "note": "[NMDI-1]", "values": [
      {"measurement": "inhibition of NMD in HeLa cells", "setting": "NMD [1]", "value": "effective in HeLa cells"},
      {"measurement": "raising the level of PTC-bearing glutathione peroxidase 1 (GPx1) mRNA", "setting": "NMD [1]; [3]", "value": "~1.6", "unit": "fold"},
      {"measurement": "raising the level of β-Gl Ter mRNA", "setting": "NMD [1]; [3]", "value": "~3.8", "unit": "fold"},
      {"measurement": "inhibition of NMD in HeLa cells", "setting": "NMD [1]; listed as NMD-1", "value": "potent inhibitor of NMD"},
      {"measurement": "effect on NMD in MCF7 cells", "setting": "NMD [2]", "value": "no effect"},
      {"measurement": "cell viability at sub-lethal doxorubicin", "setting": "HeLa cells; 0.5 μM doxorubicin, doxorubicin alone, co-treatment or pre-treatment with NMDI-1", "value": "none of the treatments significantly affected viability"},
      {"measurement": "reduction in cell viability relative to doxorubicin alone", "setting": "HeLa cells; NMDI-1 pulse 8 h, washed, then doxorubicin 16 h", "value": "~2.5", "unit": "fold"},
      {"measurement": "cell viability relative to doxorubicin treatment alone", "setting": "HeLa cells; continuous co-incubation 16 h with doxorubicin and NMDI-1", "value": "statistically significant decreases in cell viability"}
    ]}
  ]
}
